Source: PubChem BioAssay (NCI)
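1) Cells in 96-well plates. 2) Compound, 48 h, 5 concentrations. 3) Linear interpolation between surrounding doses. 4) Unreached endpoint = highest concentration. At the GI50, growth is halved. TGI is the concentration that stops growth completely.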

system: UO-31 renal; test: NCI anticancer screen, dose series, 48 h

| SMILES | GI50 [µM] | TGI [µM] |
| --- | --- | --- |
| C#C[C@]1(O)CC[C@H]2[C@@H]3CC=C4c5nc(N)sc5CC[C@]4(C)[C@H]3CC[C@@]21C | 2.68 | 10.5 |
| CCOC(=O)c1c(CN2CCN(C)CC2)nc2ccc(Cl)cc2c1-c1ccccc1 | 5.98 | 19.5 |
| O=CN1N=C(c2cccc(Nc3ccnc4cc(Cl)ccc34)c2)CC1c1ccc(Cl)cc1 (centres undefined) | 0.878 | > 100 |
| OCCN(CO)CO | – | > 100 |
| CN1CC[C@H](c2c(O)cc(O)c3c(=O)cc(-c4ccccc4Cl)oc23)[C@H](O)C1 | 0.0662 | > 10 |
| COc1cc(-c2nn(-c3cccc(NC(=O)CCNc4ccc(N5CCOCC5)cc4)c3)cc2-c2ccncc2)ccc1Cl | 2.7 | > 100 |
| CC(=O)Oc1cc2cnc3c4cc(OC(C)=O)c(OC(C)=O)cc4ccc3c2cc1OC(C)=O | 0.472 | > 100 |
| CCCCCC[C@H]1C(=O)O[C@H](C)[C@H](NC(=O)c2cccc(NC=O)c2OC)C(=O)O[C@@H](C)[C@@H]1OC(=O)CCC (tested in a mixture with another compound) | 13.2 | 29.3 |
| CC1OC(OC2C(O)C(O)C(O)C(O)C2O)C(N)CC1N=C(N)C(=O)O (centres undefined) | – | > 100 |
| C=CC(=O)Nc1cc2c(Nc3ccc(F)c(Cl)c3)ncnc2cc1C#CC(C)(C)N1CCN(C)CC1 | 0.244 | 4.4 |
| CSC1=Nc2c(c(C)c(-c3ccccc3)n2COC(CO)CO)C2=NC(=O)CC(C)N12 (centres undefined) | > 100 | > 100 |
| C=C1C[C@@H]2O[C@H]3[C@H]4[C@@H](CC[C@@](C)(OC(=O)CCC)[C@H]42)[C@@H](C)C(=O)O[C@@]3(C)CC[C@H]1OO | 17.9 | 33.7 |

system: T-47D breast; test: NCI anticancer screen, dose series, 48 h

| SMILES | GI50 [µM] | TGI [µM] |
| --- | --- | --- |
| C#C[C@]1(O)CC[C@H]2[C@@H]3CC=C4c5nc(N)sc5CC[C@]4(C)[C@H]3CC[C@@]21C | 3.98 | 29.7 |
| CCOC(=O)c1c(CN2CCN(C)CC2)nc2ccc(Cl)cc2c1-c1ccccc1 | 9.41 | 24.4 |
| O=CN1N=C(c2cccc(Nc3ccnc4cc(Cl)ccc34)c2)CC1c1ccc(Cl)cc1 (centres undefined) | 2.63 | > 100 |
| OCCN(CO)CO | – | > 100 |
| CN1CC[C@H](c2c(O)cc(O)c3c(=O)cc(-c4ccccc4Cl)oc23)[C@H](O)C1 | 0.0737 | > 2.84 |
| COc1cc(-c2nn(-c3cccc(NC(=O)CCNc4ccc(N5CCOCC5)cc4)c3)cc2-c2ccncc2)ccc1Cl | 1.99 | 7.91 |
| CC(=O)Oc1cc2cnc3c4cc(OC(C)=O)c(OC(C)=O)cc4ccc3c2cc1OC(C)=O | 0.898 | > 100 |
| CCCCCC[C@H]1C(=O)O[C@H](C)[C@H](NC(=O)c2cccc(NC=O)c2OC)C(=O)O[C@@H](C)[C@@H]1OC(=O)CCC (tested in a mixture with another compound) | 11.2 | 35.5 |
| CC1OC(OC2C(O)C(O)C(O)C(O)C2O)C(N)CC1N=C(N)C(=O)O (centres undefined) | – | > 100 |
| C=CC(=O)Nc1cc2c(Nc3ccc(F)c(Cl)c3)ncnc2cc1C#CC(C)(C)N1CCN(C)CC1 | 0.752 | 5.32 |
| CSC1=Nc2c(c(C)c(-c3ccccc3)n2COC(CO)CO)C2=NC(=O)CC(C)N12 (centres undefined) | > 100 | > 100 |
| C=C1C[C@@H]2O[C@H]3[C@H]4[C@@H](CC[C@@](C)(OC(=O)CCC)[C@H]42)[C@@H](C)C(=O)O[C@@]3(C)CC[C@H]1OO | 21.4 | 40 |
